According to the PolyMetriX glass transition set:

Point of comparison: `*N=P(*)(CCC)CCC` (repeat unit), glass transition temperature 10.00 °C. Against it:
- *c1ccc(Oc2ccc(-c3nc4ccc(Oc5ccc6nc(*)c(-c7ccccc7)nc6c5)cc4nc3-c3ccccc3)cc2)cc1 (repeat unit) — higher, 437.00 °C
- *C(=O)Nc1ccc2c(c1)Cc1cc(NC(=O)c3ccc4c(c3)C(=O)N(c3ccc(NC(=O)Nc5ccc(N6C(=O)c7ccc(*)cc7C6=O)cc5)cc3)C4=O)ccc1-2 (repeat unit) — higher, 224.00 °C
- *CCCC(*)(C)C (repeat unit) — lower, -20.00 °C
- *Oc1ccc(S(=O)(=O)c2cccc3c(S(=O)(=O)c4ccc(Oc5ccc(-c6ccc(*)cc6)cc5)cc4)cccc23)cc1 (repeat unit) — higher, 248.00 °C
- *CCN(CCOC(=O)CCCCC(=O)O*)c1ccc(/C=N/N(c2ccccc2)c2ccccc2)cc1 (repeat unit) — higher, 54.00 °C
- *=NP(=NP(=NC(=*)Oc1ccccc1C(F)(F)F)(Oc1ccccc1C(F)(F)F)Oc1ccccc1C(F)(F)F)(Oc1ccccc1C(F)(F)F)Oc1ccccc1C(F)(F)F (repeat unit) — lower, -20.00 °C
- *CC(*)(CC(=O)OC)C(=O)OC12CC3CC(CC(C3)C1)C2 (repeat unit) — higher, 197.00 °C
- *O[Si](*)(C)CCCOc1ccc(N(c2ccc(C)cc2)c2ccc(-c3ccc(N(c4ccccc4)c4ccc(C)cc4)cc3)cc2)cc1 (repeat unit) — higher, 102.00 °C
- *c1ccc(Oc2cccc(Oc3ccc(N4C(=O)c5ccc(-c6ccc7c(c6)C(=O)N(*)C7=O)cc5C4=O)cc3)c2)cc1 (repeat unit) — higher, 234.00 °C
- *Nc1cc(NC(=O)C(*)=O)ccc1C (repeat unit) — lower, -54.6 °C
- */C=C/c1cc(OCCCCCCCC)c(/C=C/c2ccc(*)c3nsnc23)cc1OCCCCCCCC (repeat unit) — higher, 153.00 °C
- *C(=O)OCCOC(=O)c1ccc(N2C(=O)c3ccc(*)cc3C2=O)cc1 (repeat unit) — higher, 280.00 °C
- *c1cc(CCOCCOC)c(*)[nH]1 (repeat unit) — lower, -43.00 °C
- *Oc1ccc(C2(c3ccc(OC(*)=O)cc3)CCc3ccccc32)cc1 (repeat unit) — higher, 219.00 °C
- *CC(*)(F)C(=O)OCC(F)(F)C(F)(F)C(F)(F)F (repeat unit) — higher, 75.00 °C
- *CN1C(=O)c2ccc(C(c3ccc4c(c3)C(=O)N(Cc3nc5cc(-c6ccc7oc(*)nc7c6)ccc5o3)C4=O)(C(F)(F)F)C(F)(F)F)cc2C1=O (repeat unit) — higher, 231.00 °C
- *CC(*)(C)C(=O)OCCCCCCC(F)(F)C(F)(F)C(F)(F)C(F)(F)F (repeat unit) — higher, 23.00 °C
- *CC(CC)C(CC)COC(=O)c1ccc(C(=O)O*)cc1 (repeat unit) — higher, 32.00 °C
- *c1cccc(S(=O)(=O)c2cccc(N3C(=O)c4ccc(Oc5ccc(S(=O)(=O)c6ccc(Oc7ccc8c(c7)C(=O)N(*)C8=O)cc6)cc5)cc4C3=O)c2)c1 (repeat unit) — higher, 205.00 °C
- *C(=O)OCC(C)(C)CSCC(C)(C)COC(=O)C1(C)CNC(*)(C)CN1 (repeat unit) — higher, 40.00 °C
- *CC(C)(C)CS* (repeat unit) — lower, -49.30 °C
- *CC(COC(C)(C)C)O* (repeat unit) — lower, -24.00 °C
- *CCN(CCOC(=O)Nc1ccc(Cc2ccc(NC(=O)O*)cc2)cc1)c1ccccc1 (repeat unit) — higher, 31.90 °C
- *c1ccc2c(c1)C(=O)N(c1ccc(OC(CCCCCC)COc3ccc(N4C(=O)c5ccc(C(*)(C(F)(F)F)C(F)(F)F)cc5C4=O)cc3)cc1)C2=O (repeat unit) — higher, 182.00 °C
- *CCCC1(C)CCN(C(=O)CCC(=O)N2CCC(*)(C)CC2)CC1 (repeat unit) — higher, 99.00 °C
- *c1ccc(Oc2ccc(N3C(=O)c4ccc([Si](C)(C)c5ccc6c(c5)C(=O)N(*)C6=O)cc4C3=O)cc2)cc1 (repeat unit) — higher, 274.00 °C
- *CC(*)(C)C(=O)OCC(F)(F)C(F)(F)C(F)(F)C(F)(F)C(F)(F)C(F)F (repeat unit) — higher, 12.50 °C
- *C(=O)c1ccc(Oc2ccc(Oc3ccc(C(=O)c4ccc5c(c4)C(=O)N(c4ccc(N6C(=O)c7ccc(*)cc7C6=O)cc4)C5=O)cc3)cc2)cc1 (repeat unit) — higher, 236.00 °C
- *O[Si](C)(C)O[Si](C)(C)O[Si](C)(C)O[Si](C)(C)O[Si](C)(C)OC(C)CCCCC(*)C (repeat unit) — lower, -104.00 °C
- *CCC[Si](*)(C)O[Si](C)(C)CCCOc1ccc(C(=O)Oc2ccc(C#N)cc2)cc1 (repeat unit) — lower, -19.10 °C
- *Oc1ccc(-c2ccc(OC(=O)c3cc(/N=N/c4ccc(OCC)cc4)ccc3-c3ccc(/N=N/c4ccc(OCC)cc4)cc3C(*)=O)cc2)cc1 (repeat unit) — higher, 165.00 °C
- *Nc1ccc(NC(=O)c2ccc(NC(=O)c3ccc([Si](C)(C)c4ccc(C(=O)Nc5ccc(C(*)=O)cc5)cc4)cc3)cc2)cc1 (repeat unit) — higher, 338.00 °C
- *c1ccc(C(=O)Oc2c(C)cc(C(c3cccnc3)c3cc(C)c(OC(=O)c4ccc(N5C(=O)CC(Nc6ccc(Cc7ccc(NC8CC(=O)N(*)C8=O)cc7)cc6)C5=O)cc4)c(C)c3)cc2C)cc1 (repeat unit) — higher, 186.00 °C
- *CCCCCCCCCCC(=O)N* (repeat unit) — higher, 46.00 °C
- *Oc1c(C)cc(-c2cc(C)c(OC(=O)CCCCCCCCC(*)=O)c(C)c2)cc1C (repeat unit) — higher, 57.00 °C
- *c1ccc(C(=O)c2ccc(C(=O)c3ccc(Oc4ccc(-c5nn(*)c(=O)c6ccccc56)c(F)c4)cc3)cc2)cc1 (repeat unit) — higher, 287.00 °C
- *CCCCCCCNC(=O)CCCCCC(=O)N* (repeat unit) — higher, 55.00 °C
- *CCCCCCCCCCOC(=O)c1cccc(C(=O)O*)c1 (repeat unit) — lower, -22.50 °C
- *CCCCOC(=O)Nc1ccc(C)c(NC(=O)O*)c1 (repeat unit) — higher, 42.00 °C
- *c1ccc(Oc2ccc(S(=O)(=O)c3ccc(C)cc3)cc2)c(-n2c(=O)c3cc4c(=O)n(*)c(=O)c4cc3c2=O)c1 (repeat unit) — higher, 320.00 °C
- *CC(*)C(=O)Oc1ccc(C(C)(C)C)cc1 (repeat unit) — higher, 71.00 °C
- *[Si](*)(C)CCCOCC1COC(C)(C)O1 (repeat unit) — lower, -48.00 °C
- *Oc1ccc(S(=O)(=O)c2ccc(OC3(F)C(*)(F)C(F)(F)C3(F)F)cc2)cc1 (repeat unit) — higher, 162.20 °C
- *Nc1ccc(C(C)(C)c2ccc(NC(=O)c3cc(C(*)=O)cc(N4C(=O)C=CC4=O)c3)cc2)cc1 (repeat unit) — higher, 303.00 °C
- *CCOCCOCCOCCOCCOCCOC(=O)NCCCCCCNC(=O)O* (repeat unit) — lower, -31.00 °C
- *N=P(N=P(N=S(*)(=O)NCCCCCC)(NCCCCCC)NCCCCCC)(NCCCCCC)NCCCCCC (repeat unit) — lower, -18.00 °C
- *Oc1ccc(NC(=O)CCCCCC(=O)Nc2ccc(*)cc2)cc1 (repeat unit) — higher, 180.00 °C
- *Oc1ccc(OC(=O)c2ccc(-c3ccc(C(*)=O)cc3)cc2-c2ccccc2)cc1C (repeat unit) — higher, 133.00 °C
